Calls of active or inactive are those of the source. The rule behind the calls is not given here.
Tests used:
A549 = experiment: Cytotoxicity against human A549 cells after 48 hrs by MTT assay; format: functional, cell-based; conditions: A549, 48 h
K562 = experiment: Cytotoxicity against human K562 cells after 48 hrs by MTT assay; format: functional, cell-based; conditions: K562, 48 h
[1] = biological target: T1, DNA topoisomerase 2-alpha (Homo sapiens, UniProt P11388); experiment: Inhibition of human DNA topoisomerase 2alpha using pBR322 DNA at 2 uM after 30 mins by agarose gel electrophoresis
[2] = biological target: T1, DNA topoisomerase 2-alpha; experiment: Inhibition of human DNA topoisomerase 2alpha-mediated relaxation of supercoiled pBR322 at 20 uM after 30 mins by agarose gel electrophoresis
HeLa = experiment: Cytotoxicity against human HeLa cells after 48 hrs by MTT assay; format: functional, cell-based
HL-60 = experiment: Cytotoxicity against human HL60 cells after 48 hrs by MTT assay; format: functional, cell-based; conditions: HL-60, 48 h
[3] = biological target: T1, DNA topoisomerase 2-alpha; experiment: Ratio of mansonone-E IC50 to compound IC50 for human DNA topoisomerase 2alpha
[4] = biological target: T1, DNA topoisomerase 2-alpha; experiment: Inhibition of human DNA topoisomerase 2alpha using pBR322 DNA after 30 mins by agarose gel electrophoresis
[5] = biological target: T1, DNA topoisomerase 2-alpha; experiment: Inhibition of human topoisomerase 2alpha assessed as formation of linear form of supercoiled pBR322 DNA at 50 uM after 30 mins by agarose gel electrophoresis
[6] = biological target: T1, DNA topoisomerase 2-alpha; conditions: 100 uM
Description: Inhibition of human topoisomerase 2alpha assessed as formation of linear form of supercoiled pBR322 DNA at 100 uM after 30 mins by agarose gel electrophoresis

[7] = biological target: T2, DNA topoisomerase 1 (Homo sapiens) (UniProt P11387); experiment: Inhibition of DNA topoisomerase 1 (unknown origin)-mediated relaxation of supercoiled pBR322 at 50 uM after 30 mins by agarose gel electrophoresis
T2 sequence (whole entry): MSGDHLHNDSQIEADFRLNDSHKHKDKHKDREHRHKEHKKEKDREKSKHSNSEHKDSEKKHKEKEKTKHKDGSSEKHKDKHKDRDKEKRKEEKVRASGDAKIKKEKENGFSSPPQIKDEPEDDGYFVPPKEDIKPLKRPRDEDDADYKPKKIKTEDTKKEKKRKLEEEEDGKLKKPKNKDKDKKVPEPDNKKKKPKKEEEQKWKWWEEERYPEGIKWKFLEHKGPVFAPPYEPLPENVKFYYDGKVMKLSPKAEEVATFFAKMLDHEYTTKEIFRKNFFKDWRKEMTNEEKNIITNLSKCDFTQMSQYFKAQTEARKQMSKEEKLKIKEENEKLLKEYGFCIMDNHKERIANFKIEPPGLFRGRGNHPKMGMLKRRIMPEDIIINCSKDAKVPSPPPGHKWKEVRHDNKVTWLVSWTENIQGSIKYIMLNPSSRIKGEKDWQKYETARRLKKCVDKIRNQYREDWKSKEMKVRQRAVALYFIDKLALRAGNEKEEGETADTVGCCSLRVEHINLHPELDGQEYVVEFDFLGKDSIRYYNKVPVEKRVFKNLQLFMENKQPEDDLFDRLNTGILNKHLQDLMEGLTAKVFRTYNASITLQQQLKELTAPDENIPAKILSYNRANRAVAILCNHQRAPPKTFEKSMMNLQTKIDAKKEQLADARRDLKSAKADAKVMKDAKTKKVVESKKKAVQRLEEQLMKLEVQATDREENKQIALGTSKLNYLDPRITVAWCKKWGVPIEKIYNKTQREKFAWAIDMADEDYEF

T1 sequence (P11388 whole entry): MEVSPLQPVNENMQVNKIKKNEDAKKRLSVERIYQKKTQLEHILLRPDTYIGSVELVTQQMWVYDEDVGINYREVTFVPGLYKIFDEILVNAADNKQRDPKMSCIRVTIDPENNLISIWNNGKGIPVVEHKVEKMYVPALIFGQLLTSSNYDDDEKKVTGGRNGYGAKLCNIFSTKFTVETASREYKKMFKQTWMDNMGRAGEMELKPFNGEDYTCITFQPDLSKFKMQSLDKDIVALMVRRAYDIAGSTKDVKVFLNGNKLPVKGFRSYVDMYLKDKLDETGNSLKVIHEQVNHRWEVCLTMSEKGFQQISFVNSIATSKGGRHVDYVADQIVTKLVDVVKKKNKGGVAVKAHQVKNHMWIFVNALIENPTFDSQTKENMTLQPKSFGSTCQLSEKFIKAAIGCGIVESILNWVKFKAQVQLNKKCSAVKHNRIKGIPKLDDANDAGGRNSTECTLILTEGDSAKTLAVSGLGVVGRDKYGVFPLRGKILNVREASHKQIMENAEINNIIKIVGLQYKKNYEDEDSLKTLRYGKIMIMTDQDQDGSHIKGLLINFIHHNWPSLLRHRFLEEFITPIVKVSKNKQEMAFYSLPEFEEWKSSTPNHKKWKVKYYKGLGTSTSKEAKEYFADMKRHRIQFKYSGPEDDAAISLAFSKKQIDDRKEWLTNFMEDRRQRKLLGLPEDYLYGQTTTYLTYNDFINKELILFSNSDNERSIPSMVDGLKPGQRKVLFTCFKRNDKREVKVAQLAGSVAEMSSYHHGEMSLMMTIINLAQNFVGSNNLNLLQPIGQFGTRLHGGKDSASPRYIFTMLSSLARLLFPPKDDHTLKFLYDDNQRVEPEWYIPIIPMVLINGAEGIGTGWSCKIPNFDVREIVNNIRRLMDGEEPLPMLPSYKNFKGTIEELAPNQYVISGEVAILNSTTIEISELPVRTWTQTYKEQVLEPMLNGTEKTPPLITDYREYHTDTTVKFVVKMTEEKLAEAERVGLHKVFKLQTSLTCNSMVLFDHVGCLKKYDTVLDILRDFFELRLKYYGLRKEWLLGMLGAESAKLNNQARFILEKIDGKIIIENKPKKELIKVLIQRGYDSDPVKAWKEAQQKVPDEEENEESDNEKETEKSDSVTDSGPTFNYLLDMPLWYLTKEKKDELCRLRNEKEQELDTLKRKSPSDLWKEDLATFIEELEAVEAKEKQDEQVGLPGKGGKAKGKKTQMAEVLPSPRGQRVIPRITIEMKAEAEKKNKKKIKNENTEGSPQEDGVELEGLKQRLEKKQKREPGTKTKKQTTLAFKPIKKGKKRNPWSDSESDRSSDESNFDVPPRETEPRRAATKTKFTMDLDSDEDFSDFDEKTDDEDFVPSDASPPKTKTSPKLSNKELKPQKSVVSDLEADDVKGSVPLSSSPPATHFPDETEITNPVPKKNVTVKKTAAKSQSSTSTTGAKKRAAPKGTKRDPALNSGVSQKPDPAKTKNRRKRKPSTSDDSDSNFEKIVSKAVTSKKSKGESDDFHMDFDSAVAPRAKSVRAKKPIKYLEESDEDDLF

Compound | inhibition [1] | inhibition [2] | Ratio IC50 [3] | IC50 [4] [µM] | inhibition [5] | inhibition [6] | inhibition [7] | IC50 (A549) [µM] | IC50 (K562) [µM] | IC50 (HeLa) [µM] | IC50 (HL-60) [µM]
CCCCCc1ccc(-c2cn(C3COC4=C(Br)C(=O)C(=O)c5cccc3c54)nn2)cc1 (stereo unspecified) | Active | Active | 20 | 0.92 | – | – | – | 15 | 4.12 | 7.72 | 2.34
CCCc1ccc(-c2cn(C3COC4=C(Br)C(=O)C(=O)c5cccc3c54)nn2)cc1 (stereo unspecified) | Active | Active | – | – | inactive | – | – | 17.3 | 2.82 | 11.8 | 1.49
CCCCc1ccc(-c2cn(C3COC4=C(Br)C(=O)C(=O)c5cccc3c54)nn2)cc1 (stereo unspecified) | Active | Active | – | – | – | – | – | 18.3 | 3.87 | 12.5 | 2.55
CC1=C2OCC(C)c3ccc(C)c(c32)C(=O)C1=O (stereo unspecified) [MANSONONE E] | – | – | – | 18.6 | – | – | – | 17.5 | 12.2 | 15.7 | 10.6
COc1ccc(-c2cn(C3COC4=C(Br)C(=O)C(=O)c5cccc3c54)nn2)cc1 (stereo unspecified) | Active | Active | – | – | – | – | – | 45.8 | 12.7 | 26.7 | 10.3
O=C1C(=O)c2cccc3c2C(=C1Br)OCC3n1cc(-c2ccc(F)cc2)nn1 (stereo unspecified) | Active | Active | – | – | – | – | – | 50 | 35.5 | 30.2 | 12.3
Cc1ccc(-c2cn(C3COC4=C(Br)C(=O)C(=O)c5cccc3c54)nn2)cc1 (stereo unspecified) | Active | Active | – | – | – | – | – | 42.9 | 18.8 | 26.6 | 10.3
O=C1C(=O)c2cccc3c2C(=C1Br)OCC3n1cc(-c2ccccc2)nn1 (stereo unspecified) | Active | Active | – | – | – | – | – | 50 | 40.1 | 42.9 | 29.3
COc1cc([C@@H]2c3cc4c(cc3[C@@H](O[C@@H]3O[C@@H]5CO[C@@H](C)O[C@H]5[C@H](O)[C@H]3O)[C@H]3COC(=O)[C@H]23)OCO4)cc(OC)c1O [ETOPOSIDE] | – | – | – | – | – | Active | – | – | 8.45 | 63.7 | 0.33
O=C1C(=O)c2cccc3c2C(=C1Br)OCC3n1cc(-c2ccccn2)nn1 (stereo unspecified) | Active | Active | – | – | – | – | – | 15.3 | 3.23 | 16.2 | 2.11
COC(=O)c1nnn(C2COC3=C(Br)C(=O)C(=O)c4cccc2c43)c1C(=O)OC (stereo unspecified) | Active | Active | – | – | – | – | – | > 50 | > 50 | > 50 | > 50
CCc1ccc(-c2cn(C3COC4=C(Br)C(=O)C(=O)c5cccc3c54)nn2)cc1 (stereo unspecified) | Active | Active | – | – | – | – | – | 22.9 | 14.4 | 16.7 | 4.94

Second part, led by results:

inhibition [1] | inhibition [2] | Ratio IC50 [3] | IC50 [4] [µM] | inhibition [5] | inhibition [6] | inhibition [7] | Compound | IC50 (A549) [µM] | IC50 (K562) [µM] | IC50 (HeLa) [µM] | IC50 (HL-60) [µM]
Active | Active | – | – | – | – | – | CCCCc1ccc(-c2cn(C3COC4=C(Cl)C(=O)C(=O)c5cccc3c54)nn2)cc1 (stereo unspecified) | 11.4 | 5.67 | 18 | 2.55
Active | Active | – | – | – | – | – | COC(=O)c1nnn(C2COC3=C(Cl)C(=O)C(=O)c4cccc2c43)c1C(=O)OC (stereo unspecified) | > 100 | > 50 | > 100 | > 100
Active | Active | – | – | – | – | – | COc1ccc(-c2cn(C3COC4=C(Cl)C(=O)C(=O)c5cccc3c54)nn2)cc1 (stereo unspecified) | 51.1 | 29.8 | 40.9 | 7.08
Active | Active | – | – | – | – | – | Cc1ccc(-c2cn(C3COC4=C(Cl)C(=O)C(=O)c5cccc3c54)nn2)cc1 (stereo unspecified) | 55.5 | 18.3 | 32.8 | 19.8
Active | Active | – | – | – | – | – | CCCCCc1ccc(-c2cn(C3COC4=C(Cl)C(=O)C(=O)c5cccc3c54)nn2)cc1 (stereo unspecified) | 12.8 | 3.51 | 16.9 | 3.54
Active | Active | – | – | – | – | – | O=C1C(=O)c2cccc3c2C(=C1Cl)OCC3n1cc(-c2ccccn2)nn1 (stereo unspecified) | 17.8 | 5.87 | 28.9 | 2.7
Active | Active | – | – | – | – | – | COC(=O)c1cn(C2COC3=C(Br)C(=O)C(=O)c4cccc2c43)nn1 (stereo unspecified) | > 50 | > 50 | > 50 | > 50
Active | Active | – | – | – | – | – | CCOC(=O)c1cn(C2COC3=C(Br)C(=O)C(=O)c4cccc2c43)nn1 (stereo unspecified) | > 50 | > 50 | > 50 | > 50
Active | Active | – | – | – | – | – | O=C1C(=O)c2cccc3c2C(=C1Cl)OCC3n1cc(-c2ccc(Cl)cc2)nn1 (stereo unspecified) | 77.7 | 20.6 | 67.4 | 12.2
Active | Active | – | – | – | – | – | O=C1C(=O)c2cccc3c2C(=C1Cl)OCC3n1cc(-c2ccc(F)cc2)nn1 (stereo unspecified) | 43.1 | 16.7 | 48.4 | 10.7
Active | Active | – | – | – | – | – | CCCc1ccc(-c2cn(C3COC4=C(Cl)C(=O)C(=O)c5cccc3c54)nn2)cc1 (stereo unspecified) | 28.3 | 3.86 | 24.4 | 2.38
Active | Active | – | – | – | – | – | COC(=O)c1cn(C2COC3=C(Cl)C(=O)C(=O)c4cccc2c43)nn1 (stereo unspecified) | > 100 | > 50 | > 100 | 98
Active | Active | – | – | – | – | – | CCOC(=O)c1cn(C2COC3=C(Cl)C(=O)C(=O)c4cccc2c43)nn1 (stereo unspecified) | > 100 | > 50 | > 100 | > 100
Active | Active | – | – | – | – | – | O=C1C(=O)c2cccc3c2C(=C1Cl)OCC3n1cc(C2CC2)nn1 (stereo unspecified) | > 100 | 50 | > 100 | 50
Active | Active | – | – | – | – | – | O=C1C(=O)c2cccc3c2C(=C1Cl)OCC3n1cc(-c2ccccc2)nn1 (stereo unspecified) | 84.5 | 21.4 | 70.2 | 18.4
Active | Active | – | – | – | – | – | O=C1C(=O)c2cccc3c2C(=C1Br)OCC3n1cc(-c2ccc(Cl)cc2)nn1 (stereo unspecified) | 50 | 29 | 30.6 | 15.4
Active | Active | – | – | – | – | – | O=C1C(=O)c2cccc3c2C(=C1Br)OCC3n1cc(C2CC2)nn1 (stereo unspecified) | > 50 | 40.2 | 43.1 | 22.7
Active | Active | – | – | – | – | inactive | CCc1ccc(-c2cn(C3COC4=C(Cl)C(=O)C(=O)c5cccc3c54)nn2)cc1 (stereo unspecified) | 29.5 | 10.6 | 29.1 | 2.9
